Assays:
[1] = system: hepatoma cell line; assay: Promotion of PDT efficacy with lysosomal sensitizer in the hepatoma cell line; assay type: cell-based, murine; settings: lysosomal sensitizer Npe6, hepatoma cell line
Description: Cell lines. Studies have been carried out with the murine leukemia L1210 and murine hepatoma hepa 1c1c7 cell lines along with primary rat hepatocyte cultures. Except for the latter, cells are grown in tissue culture. The L1210 cell line is grown in suspension culture in Fischer's medium containing 10% horse serum. The murine hepatoma 1c1c7 cell line was obtained from Dr. J. Whitlock, Jr. (Stanford University, CA). Cells were cultured on either commercially available plastic tissue cutureware, or poly-L-lysine coated glass coverslips or discs, and grown at 37° C. in a-minimal essential medium (aMEM) containing 5% fetal bovine serum and antibiotics. Cultures were passaged by incubation with a trypsin+EDTA solution (0.25% trypsin, 1 mM EDTA in Hank's Balanced Salts Solution). Determination of PDT efficacy. […] The cells were then lysed and levels of caspase-3 activity are assessed using a fluorescent plate reader. […] These substrates were cleaved by caspase-3 to form fluorescent products that were then detected. The plate readers take periodic readings of the emerging fluorescence, permitting a rate to be assessed. […] Protein levels in the lysates were also determined, so that the net result was in terms of caspase-3 activity per mg protein per minute. Photokilling was assessed by clonogenic assays involving the plating of known numbers of cells. […]

[2] = system: murine hepatoma 1c1c7 cell line; assay: Photokilling assessed by clonogenic assay after SnET2 PDT; assay type: cell-based; settings: for number of colonies: irradiation 270 mJ/cm^2 at 630-700 nm, colonies counted four days later, mean±SD of 3-4 plates
Description: Cell lines. Studies have been carried out with the murine leukemia L1210 and murine hepatoma hepa 1c1c7 cell lines along with primary rat hepatocyte cultures. Except for the latter, cells are grown in tissue culture. The L1210 cell line is grown in suspension culture in Fischer's medium containing 10% horse serum. The murine hepatoma 1c1c7 cell line was obtained from Dr. J. Whitlock, Jr. (Stanford University, CA). Cells were cultured on either commercially available plastic tissue cutureware, or poly-L-lysine coated glass coverslips or discs, and grown at 37° C. in a-minimal essential medium (aMEM) containing 5% fetal bovine serum and antibiotics. Cultures were passaged by incubation with a trypsin+EDTA solution (0.25% trypsin, 1 mM EDTA in Hank's Balanced Salts Solution). Photokilling was assessed by clonogenic assays involving the plating of known numbers of cells. After several days in cell culture, the number of resulting colonies reflected the number of viable cells that survive PDT. Freshly prepared suspensions of 1c1c7 cells were plated in 60 mm culture dishes at a density of 500 cells/dish. Approximately 18 hours later cultures were treated with PDT sensitizer and/or UDCA. After 30 minutes of incubation culture dishes were washed once with complete medium and then refed with complete medium. Refed cultures were subsequently irradiated and returned to incubators. Cultures were refed every third day, and stained with crystal violet once colonies were of sufficient size to score. […] After irradiation of 270 mJ/cm^2 at 630-700 nm, the plates were incubated and the colonies were counted four days later. The data represents the mean±a standard deviation of three to four plates.

[3] = cited from earlier work
[4] = cited from earlier work; remark: listed apart in the source
[5] = UDCA analogs/conjugates

SMILES: C=Cc1c(C)c2cc3nc(c(CC(=O)N[C@@H](CC(=O)[O-])C(=O)[O-])c4nc(cc5[nH]c(cc1[nH]2)c(C)c5CC)C(C)=C4C(=O)[O-])[C@@H](CCC(=O)[O-])[C@@H]3C.[Na+].[Na+].[Na+].[Na+] [Npe6]
- promotion of photodynamic therapy efficacy by the potentiator [1]: no evidence of promotion

SMILES: C[C@H](CCC(=O)O)[C@H]1CC[C@H]2[C@@H]3[C@@H](O)C[C@@H]4C[C@H](O)CC[C@]4(C)[C@H]3CC[C@]12C [UDCA, ursodeoxycholic acid]
- number of colonies ([2]; UDCA 10 micromoles + SnET2 (2-mM)): 12±5 colonies
- colonies as percent ([2]; UDCA 10 micromoles + SnET2 PDT): 20%
- number of colonies ([2]; UDCA 100 micromoles + SnET2 (2-mM)): 1±0.7 colonies
- colonies as percent ([2]; UDCA 100 micromoles + SnET2 PDT): 1.3%
- solubility in chloraform ([3]; chloraform): slightly soluble
- solubility in ethanol and glacial acetic acid ([3]; ethanol and glacial acetic acid): freely soluble
- solubility in ether ([3]; ether): sparingly soluble
- solubility in water ([3]; water): practically insoluble
- hepatic extraction ([4]; once absorbed after oral administration, absence of liver disease): about 50%
- absorption after oral administration ([4]; oral administration, passive diffusion): incomplete

SMILES: C[C@H](CCC(=O)NCC(=O)O)[C@H]1CC[C@H]2[C@@H]3[C@@H](O)C[C@@H]4C[C@H](O)CC[C@]4(C)[C@H]3CC[C@]12C [UDCA-glycine]
- promotion of photodynamic therapeutic photokilling [5]: effective

SMILES: C[C@H](CCC(=O)NCCS(=O)(=O)O)[C@H]1CC[C@H]2[C@@H]3[C@@H](O)C[C@@H]4C[C@H](O)CC[C@]4(C)[C@H]3CC[C@]12C [UDCA-taurine]
- promotion of photodynamic therapeutic photokilling [5]: effective

— patent US20030212052A1, “Use of ursdeoxycholic acid for potentiation of the phototoxic effect of photodynamic therapy” (priority 2003, published 2003)
